Laboratory results taken from ChEMBL document CHEMBL1201862, “PubChem BioAssay data set” (2004).
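How tested: cells in 96-well plates exposed to compound for 48 hours at five concentrations. The concentration for 50% growth inhibition is given as GI50.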 Active and inactive are the calls of the source. Cut-off read from the data, not from the text of the source: active = GI50 up to about 1.1 µM and inactive = higher.

Key:
Experiment in all cases: DTP human tumour cell line panel, 48 h
A498 = tested on: A498
CAKI-1 = tested on: CAKI-1
EKVX = tested on: EKVX
HOP-62 = tested on: HOP-62
HT-29 = tested on: HT-29
IGROV-1 = tested on: IGROV-1
K562 = tested on: K562
LOX IMVI = tested on: LOX IMVI
MOLT-4 = tested on: MOLT-4
NCI-H23 = tested on: NCI-H23
OVCAR-5 = tested on: OVCAR-5
OVCAR-8 = tested on: OVCAR-8
SF-268 = tested on: SF-268
SF-295 = tested on: SF-295
SF-539 = tested on: SF-539
SK-MEL-28 = tested on: SK-MEL-28
SR = tested on: SR
UACC-257 = tested on: UACC-257
UACC-62 = tested on: UACC-62
UO-31 = tested on: UO-31

SMILES | GI50 (A498) | GI50 (CAKI-1) | GI50 (EKVX) | GI50 (HOP-62) | GI50 (HT-29) | GI50 (IGROV-1) | GI50 (K562) | GI50 (LOX IMVI) | GI50 (MOLT-4) | GI50 (NCI-H23) | GI50 (OVCAR-5) | GI50 (OVCAR-8) | GI50 (SF-268) | GI50 (SF-295) | GI50 (SF-539) | GI50 (SK-MEL-28) | GI50 (SR) | GI50 (UACC-257) | GI50 (UACC-62) | GI50 (UO-31)
C=C(Br)C(C)(Cl)CCC(Br)C(C)(C)Cl (stereo not given) | > 100 µM (inactive) | > 100 µM (inactive) | > 100 µM (inactive) | 41.2 µM (inactive) | 34.6 µM (inactive) | 77.3 µM (inactive) | 46.3 µM (inactive) | 17.6 µM (inactive) | 32.3 µM (inactive) | 41.9 µM (inactive) | 56.4 µM (inactive) | 64.1 µM (inactive) | 63.8 µM (inactive) | 34.8 µM (inactive) | 74.8 µM (inactive) | > 100 µM (inactive) | > 100 µM (inactive) | 28.9 µM (inactive) | 86.9 µM (inactive) | > 100 µM (inactive)
O=C(NN=C1NCCCCN1)Nc1ccc(Cl)cc1 | > 100 µM (inactive) | > 100 µM (inactive) | > 100 µM (inactive) | > 100 µM (inactive) | > 100 µM (inactive) | > 100 µM (inactive) | 33 µM (inactive) | > 100 µM (inactive) | 23.9 µM (inactive) | > 100 µM (inactive) | > 100 µM (inactive) | > 100 µM (inactive) | 93.1 µM (inactive) | > 100 µM (inactive) | > 100 µM (inactive) | > 100 µM (inactive) | 22.8 µM (inactive) | > 100 µM (inactive) | > 100 µM (inactive) | > 100 µM (inactive)
Cc1cccc(C)c1NC(=O)CCC(=O)NNC(=O)c1cc(O)c2ccccc2c1 | 0.344 µM (active) | 31.8 µM (inactive) | 42.3 µM (inactive) | 37.9 µM (inactive) | 58.3 µM (inactive) | 30.4 µM (inactive) | 23 µM (inactive) | 25.1 µM (inactive) | 19.5 µM (inactive) | 26.3 µM (inactive) | 32.7 µM (inactive) | 20.7 µM (inactive) | 27.6 µM (inactive) | 24 µM (inactive) | 27.9 µM (inactive) | 44.8 µM (inactive) | 28.2 µM (inactive) | 44.5 µM (inactive) | 25.6 µM (inactive) | 32.1 µM (inactive)
O=C1/C(=c2\c3ccccc3n3c(=O)c4ccccc4nc23)Nc2ccccc21 [CANDIDINE] | > 100 µM (inactive) | > 100 µM (inactive) | > 88.9 µM (inactive) | > 70.5 µM (inactive) | 26.6 µM (inactive) | > 100 µM (inactive) | > 84.5 µM (inactive) | > 72.8 µM (inactive) | > 31.6 µM (inactive) | > 64.9 µM (inactive) | > 100 µM (inactive) | > 91.8 µM (inactive) | 85.3 µM (inactive) | > 78.3 µM (inactive) | > 63 µM (inactive) | > 100 µM (inactive) | > 89.5 µM (inactive) | > 86.7 µM (inactive) | 43.9 µM (inactive) | > 21.5 µM (inactive)
O=C1OC(c2cccc(C(F)(F)F)c2)(c2cccc(C(F)(F)F)c2)c2ccc3ccccc3c21 | > 10 µM (inactive) | 26.7 µM (inactive) | > 10 µM (inactive) | > 10 µM (inactive) | > 10 µM (inactive) | > 10 µM (inactive) | 8.04 µM (inactive) | > 10 µM (inactive) | 4.66 µM (inactive) | 7.85 µM (inactive) | > 10 µM (inactive) | > 10 µM (inactive) | 9.59 µM (inactive) | 15.2 µM (inactive) | > 100 µM (inactive) | > 10 µM (inactive) | > 10 µM (inactive) | 13.1 µM (inactive) | > 10 µM (inactive) | > 10 µM (inactive)
COc1cc(OC)c(OC)cc1/C=C\c1ccnc2ccccc12 | 0.522 µM (active) | 1.05 µM (active) | 2.17 µM (inactive) | 0.582 µM (active) | 0.522 µM (active) | 0.897 µM (active) | 0.282 µM (active) | 0.61 µM (active) | 0.575 µM (active) | 0.832 µM (active) | 7.23 µM (inactive) | 1.25 µM (inactive) | 0.838 µM (active) | 0.48 µM (active) | 0.394 µM (active) | 0.782 µM (active) | 0.933 µM (active) | 4.88 µM (inactive) | 0.541 µM (active) | 0.944 µM (active)
